Data on 31 compounds can be found in ChEMBL document CHEMBL3046363, “Synthesis, fungicidal, and insecticidal activities of beta-Methoxyacrylate-containing N-acetyl pyrazoline derivatives” (J Agric Food Chem, 2008).

Activity calls are given as the source filed them. No cut-off for these calls is given here.

One assay relates to Botrytis cinerea. In words: In vivo fungicidal activity against Botryotinia fuckeliana infected in cucumber plants assessed as inhibition of disease symptoms at 200 ug/ml treated one day prior to fungal spore inoculation measured after one week. Type of assay: functional, organism-based.
Another assay concerns Podosphaera fuliginea. The assay is described as follows: In vivo fungicidal activity against Podosphaera fuliginea infected cucumber plants assessed as inhibition of disease symptoms at 200 ug/ml treated one day prior to fungal spore inoculation measured after one week. The assay is classed as functional.
In the next assay the test system is Rhizoctonia solani. In words: In vivo fungicidal activity against Rhizoctonia solani infected in cucumber plants assessed as inhibition of disease symptoms at 200 ug/ml treated one day prior to fungal spore inoculation measured after one week. The assay is classed as functional, organism-based.
Assay [1] deals with Pseudoperonospora cubensis. The assay is described as follows: In vivo fungicidal activity against Pseudoperonospora cubensis infected in cucumber plants assessed as inhibition of disease symptoms at 200 ug/ml treated one day prior to fungal spore inoculation measured after one week. The assay is classed as functional.
For a further assay, the system named is Mythimna separata. The assay is described as follows: In vivo insecticidal activity against Mythimna separata (Oriental armyworm) assessed as mortality at 500 ug/ml after 72 hr. Type of assay: functional.
The test system of a further assay is Tetranychus cinnabarinus. The assay is described as follows: In vivo insecticidal activity against Tetranychus cinnabarinus (carmine spider mite) assessed as mortality at 500 ug/ml after 72 hr. The assay is classed as functional.
In another assay the test system is Nilaparvata lugens. The assay is described as follows: In vivo insecticidal activity against fifth instar larval stage of Nilaparvata lugens (brown planthopper) in […] rice seedlings assessed as mortality at 1 g/l treated for 5 secs before larval infestation measured after 72 hr. The assay is classed as functional, organism-based.
The next assay deals with Aphis medicaginis. In words: In vivo insecticidal activity against Aphis medicaginis assessed as mortality at 1 g/l after 72 hr. The assay is classed as functional, organism-based.

As for `CO/C=C(/C(=O)OC)c1ccccc1COc1ccccc1C1=NN(C(C)=O)C(c2cccc(OC)c2)C1` (stereo not given), the inhibition entry in the assay on Botrytis cinerea and in the assay on Rhizoctonia solani was “inactive” throughout. In addition, the inhibition in vivo at 200 µg/mL (in the assay on Podosphaera fuliginea; in assay [1]) was < 60% each time.
In the case of `CO/C=C(/C(=O)OC)c1ccccc1COc1ccc(C2=NN(C(C)=O)C(c3ccccc3F)C2)cc1` (stereo not given), the inhibition entry with Botrytis cinerea and in the assay with Rhizoctonia solani was “inactive” throughout. Also, the inhibition in vivo at 200 µg/mL (in the assay on Podosphaera fuliginea; in assay [1]) was < 60% throughout.
Take `CO/C=C(/C(=O)OC)c1ccccc1COc1ccc(C2=NN(C(C)=O)C(c3ccc(Cl)cc3Cl)C2)cc1` (stereo not given): the inhibition result with Botrytis cinerea and in the assay on Rhizoctonia solani was “inactive” throughout. In addition, the inhibition in vivo at 200 µg/mL (with Podosphaera fuliginea; in assay [1]) was < 60% throughout.
Turning to `CO/C=C(/C(=O)OC)c1ccccc1COc1ccc(C2=NN(C(C)=O)C(c3ccc(Cl)cc3)C2)cc1` (stereo not given), the inhibition result in the assay on Botrytis cinerea and in the assay with Rhizoctonia solani was “inactive” each time. In addition, the inhibition in vivo at 200 µg/mL with Podosphaera fuliginea was < 60%; in assay [1], 100%.
For `CO/C=C(/C(=O)OC)c1ccccc1COc1cccc(C2=NN(C(C)=O)C(c3cc(OC)c(OC)c(OC)c3)C2)c1` (stereo not given), the inhibition entry in the assay with Botrytis cinerea and with Rhizoctonia solani was “inactive” each time. Also, the inhibition in vivo at 200 µg/mL (in the assay with Podosphaera fuliginea; in assay [1]) was < 60% each time.
For the compound `CO/C=C(/C(=O)OC)c1ccccc1COc1ccccc1C1=NN(C(C)=O)C(c2ccc(C)c(C)c2)C1` (stereo not given), the inhibition entry in the assay on Botrytis cinerea and with Rhizoctonia solani was “inactive” each time. The inhibition in vivo at 200 µg/mL (in the assay on Podosphaera fuliginea; in assay [1]) was < 60% in each case.
As to `CO/C=C(/C(=O)OC)c1ccccc1COc1cccc(C2=NN(C(C)=O)C(c3ccc(C(C)(C)C)cc3)C2)c1` (stereo not given), the mortality at 500 µg/mL with Mythimna separata was 100%; with Tetranychus cinnabarinus it was ≥ 90%. The mortality entry in the assay with Nilaparvata lugens and in the assay with Aphis medicaginis was “inactive” throughout. Also, the inhibition result in the assay on Botrytis cinerea and with Rhizoctonia solani was “inactive” in each case. Also, the inhibition in vivo at 200 µg/mL in the assay with Podosphaera fuliginea is < 60%; in assay [1] it was ≥ 80%.
On to `CO/C=C(/C(=O)OC)c1ccccc1COc1ccc(C2=NN(C(C)=O)C(c3ccc(C)c(C)c3)C2)cc1` (stereo not given), for which the inhibition entry in the assay with Botrytis cinerea and in the assay with Rhizoctonia solani was “inactive” throughout. Besides, the inhibition in vivo at 200 µg/mL (in the assay on Podosphaera fuliginea; in assay [1]) was < 60% in each case.
With `CO/C=C(/C(=O)OC)c1ccccc1COc1ccc(C2=NN(C(C)=O)C(c3cccc(F)c3)C2)cc1` (stereo not given), the inhibition result in the assay with Botrytis cinerea and in the assay on Rhizoctonia solani was “inactive” in each case. Besides, the inhibition in vivo at 200 µg/mL (with Podosphaera fuliginea; in assay [1]) was < 60% throughout.
Take `CO/C=C(/C(=O)OC)c1ccccc1COc1cccc(C2=NN(C(C)=O)C(c3cccc(F)c3)C2)c1` (stereo not given): the inhibition result in the assay on Botrytis cinerea and in the assay on Rhizoctonia solani was “inactive” each time. Besides, the inhibition in vivo at 200 µg/mL (with Podosphaera fuliginea; in assay [1]) was < 60% throughout.
As to `CO/C=C(/C(=O)OC)c1ccccc1COc1ccccc1C1=NN(C(C)=O)C(c2ccc(Cl)c(Cl)c2)C1` (stereo not given), the inhibition entry in the assay on Botrytis cinerea and in the assay with Rhizoctonia solani was “inactive” in each case. The inhibition in vivo at 200 µg/mL (with Podosphaera fuliginea; in assay [1]) was < 60% in each case.
`CO/C=C(/C(=O)OC)c1ccccc1COc1cccc(C2=NN(C(C)=O)C(c3ccc(C)cc3)C2)c1` (stereo not given): the values for the mortality at 500 µg/mL in the assay on Mythimna separata and in the assay on Tetranychus cinnabarinus were ≥ 90% and < 60%, respectively. Further, the inhibition entry in the assay on Botrytis cinerea and in the assay on Rhizoctonia solani was “inactive” each time. Also, the inhibition in vivo at 200 µg/mL is < 60% with Podosphaera fuliginea and 100% in assay [1].
`CCOc1ccc(C2CC(c3ccc(OCc4ccccc4/C(=C\OC)C(=O)OC)cc3)=NN2C(C)=O)cc1` (stereo not given): the inhibition entry with Botrytis cinerea and with Rhizoctonia solani was “inactive” each time. The inhibition in vivo at 200 µg/mL (in the assay on Podosphaera fuliginea; in assay [1]) was < 60% throughout.
As to `CO/C=C(/C(=O)OC)c1ccccc1COc1cccc(C2=NN(C(C)=O)C(c3ccccc3OC)C2)c1` (stereo not given), the inhibition result in the assay on Botrytis cinerea and in the assay on Rhizoctonia solani was “inactive” each time. Also, the inhibition in vivo at 200 µg/mL (in the assay on Podosphaera fuliginea; in assay [1]) was ≥ 80% each time.
As to `CO/C=C(/C(=O)OC)c1ccccc1COc1ccccc1C1=NN(C(C)=O)C(c2ccc(Cl)cc2)C1` (stereo not given), the inhibition result with Botrytis cinerea and in the assay with Rhizoctonia solani was “inactive” throughout. For the same compound, the inhibition in vivo at 200 µg/mL (with Podosphaera fuliginea; in assay [1]) was < 60% throughout.
With `CO/C=C(/C(=O)OC)c1ccccc1COc1ccc(C2=NN(C(C)=O)C(c3ccc(Br)cc3)C2)cc1` (stereo not given), the inhibition result in the assay with Botrytis cinerea and in the assay with Rhizoctonia solani was “inactive” in each case. For the same compound, the inhibition in vivo at 200 µg/mL (in the assay on Podosphaera fuliginea; in assay [1]) was < 60% each time.
Turning to `CO/C=C(/C(=O)OC)c1ccccc1COc1ccc(C2=NN(C(C)=O)C(c3ccc(OC)cc3)C2)cc1` (stereo not given), the inhibition entry in the assay with Botrytis cinerea and with Rhizoctonia solani was “inactive” throughout. Also, the inhibition in vivo at 200 µg/mL (in the assay on Podosphaera fuliginea; in assay [1]) was < 60% each time.
For `CO/C=C(/C(=O)OC)c1ccccc1COc1cccc(C2=NN(C(C)=O)C(c3ccccc3Br)C2)c1` (stereo not given), the inhibition result in the assay with Botrytis cinerea and in the assay with Rhizoctonia solani was “inactive” each time. The inhibition in vivo at 200 µg/mL in the assay with Podosphaera fuliginea is < 60%; in assay [1] it was 100%.
With `CO/C=C(/C(=O)OC)c1ccccc1COc1ccc(C2=NN(C(C)=O)C(c3cccs3)C2)cc1` (stereo not given), the inhibition result in the assay with Botrytis cinerea and in the assay on Rhizoctonia solani was “inactive” each time. For the same compound, the inhibition in vivo at 200 µg/mL with Podosphaera fuliginea was ≥ 60%; in assay [1], ≥ 70%.
Regarding `CO/C=C(/C(=O)OC)c1ccccc1COc1ccccc1C1=NN(C(C)=O)C(c2ccc(Br)cc2)C1` (stereo not given), the inhibition entry in the assay on Botrytis cinerea and in the assay on Rhizoctonia solani was “inactive” each time. Besides, the inhibition in vivo at 200 µg/mL (in the assay on Podosphaera fuliginea; in assay [1]) was < 60% each time.
As to `CO/C=C(/C(=O)OC)c1ccccc1COc1cccc(C2=NN(C(C)=O)C(c3ccccc3F)C2)c1` (stereo not given), the inhibition entry in the assay on Botrytis cinerea and in the assay on Rhizoctonia solani was “inactive” each time. Also, the inhibition in vivo at 200 µg/mL in the assay on Podosphaera fuliginea was < 60%; in assay [1] it was ≥ 90%.
In the case of `CO/C=C(/C(=O)OC)c1ccccc1COc1ccc(C2=NN(C(C)=O)C(c3ccc(F)cc3)C2)cc1` (stereo not given), the inhibition entry with Botrytis cinerea and in the assay on Rhizoctonia solani was “inactive” throughout. In addition, the inhibition in vivo at 200 µg/mL (in the assay with Podosphaera fuliginea; in assay [1]) was < 60% in each case.
Consider `CO/C=C(/C(=O)OC)c1ccccc1COc1cccc(C2=NN(C(C)=O)C(c3cccs3)C2)c1` (stereo not given), for which the inhibition result with Botrytis cinerea and in the assay on Rhizoctonia solani was “inactive” throughout. The inhibition in vivo at 200 µg/mL is < 60% in the assay on Podosphaera fuliginea and 100% in assay [1].
For the compound `CO/C=C(/C(=O)OC)c1ccccc1COc1ccc(C2=NN(C(C)=O)C(c3cccc(OC)c3)C2)cc1` (stereo not given), the inhibition entry in the assay with Botrytis cinerea and in the assay with Rhizoctonia solani was “inactive” each time. Further, the inhibition in vivo at 200 µg/mL in the assay on Podosphaera fuliginea is < 60%; in assay [1], ≥ 70%.
In the case of `CO/C=C(/C(=O)OC)c1ccccc1COc1ccc(C2=NN(C(C)=O)C(c3ccc(C)cc3)C2)cc1` (stereo not given), the inhibition entry in the assay on Botrytis cinerea and with Rhizoctonia solani was “inactive” in each case. The inhibition in vivo at 200 µg/mL (in the assay with Podosphaera fuliginea; in assay [1]) was < 60% throughout.
Turning to `CO/C=C(/C(=O)OC)c1ccccc1COc1ccc(C2=NN(C(C)=O)C(c3cc(OC)c(OC)c(OC)c3)C2)cc1` (stereo not given), the inhibition entry with Botrytis cinerea and in the assay on Rhizoctonia solani was “inactive” throughout. Also, the inhibition in vivo at 200 µg/mL (in the assay with Podosphaera fuliginea; in assay [1]) was < 60% in each case.
On to `CO/C=C(/C(=O)OC)c1ccccc1COc1ccccc1C1=NN(C(C)=O)C(c2ccc(OC)c(OC)c2)C1` (stereo not given), for which the inhibition result in the assay with Botrytis cinerea and in the assay on Rhizoctonia solani was “inactive” throughout. The inhibition in vivo at 200 µg/mL (with Podosphaera fuliginea; in assay [1]) was < 60% in each case.
On to `CO/C=C(/C(=O)OC)c1ccccc1COc1ccc(C2=NN(C(C)=O)C(c3ccc(C(C)(C)C)cc3)C2)cc1` (stereo not given), for which the inhibition result in the assay with Botrytis cinerea and with Rhizoctonia solani was “inactive” in each case. Moreover, the inhibition in vivo at 200 µg/mL (in the assay on Podosphaera fuliginea; in assay [1]) was < 60% in each case.
As to `CCc1ccc(C2CC(c3ccc(OCc4ccccc4/C(=C\OC)C(=O)OC)cc3)=NN2C(C)=O)cc1` (stereo not given), the inhibition entry in the assay with Botrytis cinerea and in the assay on Rhizoctonia solani was “inactive” each time. Further, the values for the inhibition in vivo at 200 µg/mL (in the assay with Podosphaera fuliginea; in assay [1]) were < 60% and 100%, respectively.
As to `CO/C=C(/C(=O)OC)c1ccccc1COc1ccc(C2=NN(C(C)=O)C(c3ccc4c(c3)OCO4)C2)cc1` (stereo not given), the inhibition result with Botrytis cinerea and in the assay with Rhizoctonia solani was “inactive” each time. Besides, the inhibition in vivo at 200 µg/mL was < 60% in the assay with Podosphaera fuliginea and 100% in assay [1].
On to `CCOc1ccc(C2CC(c3cccc(OCc4ccccc4/C(=C\OC)C(=O)OC)c3)=NN2C(C)=O)cc1` (stereo not given), for which the inhibition entry with Botrytis cinerea and with Rhizoctonia solani was “inactive” each time. Also, the inhibition in vivo at 200 µg/mL was < 60% in the assay on Podosphaera fuliginea and 100% in assay [1].
